# Source: patent US20240299385A1 (ReWind Therapeutics NV, priority 2021, published 2024)
# Biological target: T1, human GPR17 receptor (Homo sapiens, UniProt Q13304)
# T1 construct: host or cells: HEK-293
# Experiment: Calcium mobilization functional assay (Fluo-8, FLIPR TETRA) in HEK-293 hGPR17 (Gα-q assay)
# Assay type: cell-based
# Conditions: antagonism of MDL29,951 (~EC80) induced Ca2+ signal; cell line (HEK-293 hGPR17 or HEK-293 Suchi5 hGPR17) not given
# How it was run: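 Fluo-8-loaded HEK-293 hGPR17 cells (60 min dye loading, room temperature) were preincubated with compound for twenty minutes, then challenged with agonist MDL29,951 at ~EC80, 500 nM. Intracellular calcium release via Gα-q was recorded as FLIPR fluorescence for a further 2 minutes; compounds tested in duplicate.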
# T1 sequence (Q13304 whole entry): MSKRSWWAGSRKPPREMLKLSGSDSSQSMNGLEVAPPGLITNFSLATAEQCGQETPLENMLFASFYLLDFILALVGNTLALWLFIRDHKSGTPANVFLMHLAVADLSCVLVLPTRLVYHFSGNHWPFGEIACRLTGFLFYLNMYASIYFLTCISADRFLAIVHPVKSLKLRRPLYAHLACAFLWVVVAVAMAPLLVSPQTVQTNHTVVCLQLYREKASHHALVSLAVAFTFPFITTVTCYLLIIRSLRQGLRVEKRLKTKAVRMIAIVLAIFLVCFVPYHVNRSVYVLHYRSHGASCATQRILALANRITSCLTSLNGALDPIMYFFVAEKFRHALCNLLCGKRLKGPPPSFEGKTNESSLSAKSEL
row,Compound,IC50 [µM]
1,"O=S(=O)(Nc1cc(F)c(C(F)(F)F)cc1F)c1c[nH]cc1Cc1ccccc1 [Cpd 158, 4-benzyl-N-[2,5-difluoro-4-(trifluoromethyl)phenyl]-1H-pyrrole-3-sulfonamide]",0.5 to 5
2,"COc1ccc(Cl)cc1-c1cc(S(=O)(=O)Nc2ccc(C#N)cc2F)c[nH]1 [Cpd 488, 5-(5-chloro-2-methoxyphenyl)-N-(4-cyano-2-fluorophenyl)-1H-pyrrole-3-sulfonamide]",0.5 to 5
3,"N#Cc1ccc(NS(=O)(=O)c2c[nH]c(-c3ccc(F)c(Cl)c3)c2)c(F)c1 [Cpd 284, 5-(3-chloro-4-fluoro-phenyl)-N-(4-cyano-2-fluoro-phenyl)-1H-pyrrole-3-sulfonamide]",0.5 to 5
4,"N#Cc1ccc(NS(=O)(=O)c2c[nH]cc2-c2cccnc2)c(F)c1 [Cpd 437, N-(4-cyano-2-fluorophenyl)-4-(pyridin-3-yl)-1H-pyrrole-3-sulfonamide]",5 to 50
5,"Cc1cc(NS(=O)(=O)c2c[nH]c(-c3ccccn3)c2)c(F)cc1C#N [Cpd 286, N-(4-cyano-2-fluoro-5-methyl-phenyl)-5-(2-pyridyl)-1H-pyrrole-3-sulfonamide]",0.5 to 5
6,"O=S(=O)(Nc1cc(F)c(C(F)(F)F)cc1F)c1c[nH]c(-c2ncccc2C(F)F)c1 [Cpd 580, 5-[3-(difluoromethyl)pyridin-2-yl]-N-[2,5-difluoro-4-(trifluoromethyl)phenyl]-1H-pyrrole-3-sulfonamide]",0.5 to 5
7,"COc1ccccc1Cc1c[nH]cc1S(=O)(=O)Nc1ccc(C#N)cc1F [Cpd 211, N-(4-cyano-2-fluoro-phenyl)-4-[(2-methoxyphenyl)methyl]-1H-pyrrole-3-sulfonamide]",0.5 to 5
8,"Cc1[nH]c(-c2ccccc2)cc1S(=O)(=O)Nc1ccc(C#N)cc1F [Cpd 001, N-(4-cyano-2-fluorophenyl)-2-methyl-5-phenyl-1H-pyrrole-3-sulfonamide]",0.5 to 5
9,"N#Cc1ccc(NS(=O)(=O)c2c[nH]c(-c3sccc3F)c2)c(F)c1 [Cpd 602, N-(4-cyano-2-fluorophenyl)-5-(3-fluorothiophen-2-yl)-1H-pyrrole-3-sulfonamide]",< 0.5

# System: NMDA receptor
# Experiment: not given
# Conditions: selectivity, background statement; cited from earlier work
row,Compound,fold more potent as an NMDA receptor antagonist than as a GPR17 activator
1,"O=C(O)CCc1c(C(=O)O)[nH]c2cc(Cl)cc(Cl)c12 [MDL29,951, MDL 29,951]",approximately ten
